Source: patent US9493446B2, “Orexin receptor antagonists which are [ortho bi-(hetero-)aryl]-[2-(meta bi-(hetero-)aryl)-pyrrolidin-1-yl]-methanone derivatives” (Actelion Pharmaceuticals Ltd, priority 2012, dated 2016)
Where two headings read alike, the source gives them in different places.

Tests used:
human orexin-2 receptor = human orexin-2 receptor (Homo sapiens (Human), UniProt O43614); assay: Intracellular calcium measurement (FLIPR), CHO cells expressing human orexin-2 receptor, 3 nM orexin-A; type: cell-based; settings: CHO cells expressing human orexin-2 receptor, FLIPR, 3 nM orexin-A; geometric mean if determined several times; read-out: IC50 OX2
Chain of human orexin-2 receptor (O43614 whole entry): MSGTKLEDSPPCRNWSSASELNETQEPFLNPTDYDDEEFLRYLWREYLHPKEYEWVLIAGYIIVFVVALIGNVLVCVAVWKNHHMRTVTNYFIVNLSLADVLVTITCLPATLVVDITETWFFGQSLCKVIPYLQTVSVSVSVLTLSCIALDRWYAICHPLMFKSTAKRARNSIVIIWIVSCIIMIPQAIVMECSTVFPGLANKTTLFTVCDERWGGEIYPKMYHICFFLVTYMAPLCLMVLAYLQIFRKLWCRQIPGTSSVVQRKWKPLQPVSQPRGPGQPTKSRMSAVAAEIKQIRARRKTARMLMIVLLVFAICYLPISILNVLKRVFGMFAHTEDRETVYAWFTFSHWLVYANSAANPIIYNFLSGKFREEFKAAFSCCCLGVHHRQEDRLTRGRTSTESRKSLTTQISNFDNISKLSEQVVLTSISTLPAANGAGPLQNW
Summary of the method: (§1)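 Antagonist is added 120 min before agonist. Fluo-4 AM-loaded CHO cells carry human orexin-1 or orexin-2 receptor, and calcium is read by FLIPR.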

orexin-1 = orexin-1 (Homo sapiens (Human), UniProt O43613); assay: Intracellular calcium measurement (FLIPR), CHO cells expressing human orexin-1 receptor, 3 nM orexin-A; type: cell-based; settings: read-out: IC50 OX1
Chain of orexin-1 (O43613 whole entry): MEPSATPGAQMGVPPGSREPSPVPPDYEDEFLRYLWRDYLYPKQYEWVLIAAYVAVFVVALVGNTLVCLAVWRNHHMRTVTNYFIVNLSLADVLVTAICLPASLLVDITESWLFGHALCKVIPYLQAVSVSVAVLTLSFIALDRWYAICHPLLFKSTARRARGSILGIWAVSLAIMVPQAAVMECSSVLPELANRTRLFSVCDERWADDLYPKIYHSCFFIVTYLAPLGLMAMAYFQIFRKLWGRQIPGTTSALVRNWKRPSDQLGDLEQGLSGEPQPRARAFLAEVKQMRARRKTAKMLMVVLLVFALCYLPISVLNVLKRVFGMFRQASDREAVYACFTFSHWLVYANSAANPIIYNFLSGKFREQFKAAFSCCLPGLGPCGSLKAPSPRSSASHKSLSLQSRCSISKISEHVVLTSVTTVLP
Summary of the method: as §1

[1] = CHO cells expressing human orexin-1 receptor, FLIPR, 3 nM orexin-A, geometric mean if determined several times

| SMILES | IC50 (human orexin-2 receptor) [nM] | IC50 (orexin-1; [1]) [nM] | IC50 (orexin-1) [nM] |
| --- | --- | --- | --- |
| Cc1ccc(C(=O)N2CCC[C@@]2(C)c2nnc(-c3ccccc3OC(F)(F)F)[nH]2)c(-c2ccccc2)c1 [compound 548, (5-Methyl-biphenyl-2-yl)-{(S)-2-methyl-2-[5-(2-trifluoromethoxy-phenyl)-4H-[1,2,4]triazol-3-yl]-pyrrolidin-1-yl}-methanone] | 65 | 35 |  |
| O=C(c1ccc(Cl)cc1-n1nccn1)N1CCC[C@H]1c1noc(-c2ccccc2OC(F)(F)F)n1 [compound 376] | 11 |  | 23 |
| Cc1ccc(-c2ccccc2)c(C(=O)N2CCC[C@@]2(C)c2nnc(-c3ccccc3OC(F)(F)F)[nH]2)c1 [compound 549, (4-Methyl-biphenyl-2-yl)-{(S)-2-methyl-2-[5-(2-trifluoromethoxy-phenyl)-4H-[1,2,4]triazol-3-yl]-pyrrolidin-1-yl}-methanone] | 64 | 31 |  |
| COc1c(F)cccc1-c1nnc([C@@H]2CCCN2C(=O)c2cc(Cl)c(C)cc2-n2nccn2)[nH]1 [compound 475] | 2 |  | 11 |
| COc1cc(C(=O)N2CCC[C@H]2c2noc(-c3cccc(Cl)c3C)n2)c(-n2nccn2)cc1C [compound 320] | 1 | 25 |  |
| COc1cc(C(=O)N2CCC[C@H]2c2nnc(-c3ccccc3OC(F)(F)F)[nH]2)c(-n2nccn2)cc1Cl [compound 509] | 3 | 22 |  |
| COc1cc(C(=O)N2CCC[C@H]2c2noc(-c3cccc(Cl)c3OC)n2)c(-n2nccn2)cc1Cl [compound 347] | 1 | 15 |  |
| Cc1c(F)cccc1-c1noc([C@@H]2CCCN2C(=O)c2cccc(F)c2-c2ccn[nH]2)n1 [compound 253, {(S)-2-[3-(3-Fluoro-2-methyl-phenyl)-[1,2,4]oxadiazol-5-yl]-pyrrolidin-1-yl}-[3-fluoro-2-(2H-pyrazol-3-yl)-phenyl]-methanone] | 5 | 174 |  |
| C[C@@]1(c2nc(-c3ccccc3)no2)CCCN1C(=O)c1ccccc1-n1nccn1 [Example 537, [(S)-2-Methyl-2-(3-phenyl-[1,2,4]oxadiazol-5-yl)-pyrrolidin-1-yl]-(2-[1,2,3]triazol-2-yl-phenyl)-methanone] | 2880 | 3980 |  |
| O=C(c1ncsc1-c1cccc(Cl)c1)N1CCC[C@H]1c1nc(-c2ccccc2OC(F)(F)F)no1 [compound 142] | 80 | 123 |  |
| O=C(c1ccc(F)cc1-n1cccn1)N1CCC[C@H]1c1nc(-c2ccccc2OC(F)(F)F)no1 [compound 162, (4-Fluoro-2-pyrazol-1-yl-phenyl)-{(S)-2-[3-(2-trifluoromethoxy-phenyl)-[1,2,4]oxadiazol-5-yl]-pyrrolidin-1-yl}-methanone] | 347 | 818 |  |
| Cc1ccc(-n2nccn2)c(C(=O)N2CCC[C@H]2c2ncc(-c3cccc(Cl)c3)[nH]2)c1 [compound 523] | 103 | 428 |  |
| Cc1ccc(C(=O)N2CCC[C@H]2c2nc(-c3ccccc3OC(F)F)no2)c(-n2nccn2)c1 [compound 187, {(S)-2-[3-(2-Difluoromethoxy-phenyl)-[1,2,4]oxadiazol-5-yl]-pyrrolidin-1-yl}-(4-methyl-2-[1,2,3]triazol-2-yl-phenyl)-methanone] | 31 | 79 |  |
| O=C(c1cccc(F)c1-c1ccn[nH]1)N1CCC[C@H]1c1nc(-c2ccccc2C(F)(F)F)no1 [compound 183, [3-Fluoro-2-(2H-pyrazol-3-yl)-phenyl]-{(S)-2-[3-(2-trifluoromethyl-phenyl)-[1,2,4]oxadiazol-5-yl]-pyrrolidin-1-yl}-methanone] | 91 | 190 |  |
| Cc1ccc(-n2nccn2)c(C(=O)N2CCC[C@H]2c2nc(-c3ccccc3OC(F)(F)F)no2)c1F [compound 145, (2-Fluoro-3-methyl-6-[1,2,3]triazol-2-yl-phenyl)-{(S)-2-[3-(2-trifluoromethoxy-phenyl)-[1,2,4]oxadiazol-5-yl]-pyrrolidin-1-yl}-methanone] | 15 | 19 |  |
| COc1cc(C(=O)N2CCC[C@H]2c2nc(-c3cccc(F)c3C)no2)c(-n2nccn2)cc1Cl [compound 295] | 3 | 78 |  |
| Cc1ccc(-c2ncccn2)c(C(=O)N2CCC[C@H]2c2nc(-c3cccc(Cl)c3C)no2)c1 [compound 274] | 29 | 171 |  |
| Cc1cccc(-c2nc([C@@H]3CCCN3C(=O)c3cc(Cl)ccc3-n3nccn3)no2)c1C [compound 394] | 12 |  | 134 |
| Cc1ccc(-n2nccn2)c(C(=O)N2CCC[C@H]2c2nc(-c3ccnc4[nH]ccc34)no2)c1 [compound 75, (5-Methyl-2-[1,2,3]triazol-2-yl-phenyl)-{(S)-2-[3-(1H-pyrrolo[2,3-b]pyridin-4-yl)-[1,2,4]oxadiazol-5-yl]-pyrrolidin-1-yl}-methanone] | 261 | 1570 |  |
| Cc1ccc(-n2nccn2)c(C(=O)N2CCC[C@H]2c2nc(-c3cccc(OC(F)(F)F)c3)no2)c1 [compound 270, (5-Methyl-2-[1,2,3]triazol-2-yl-phenyl)-{(S)-2-[3-(3-trifluoromethoxy-phenyl)-[1,2,4]oxadiazol-5-yl]-pyrrolidin-1-yl}-methanone] | 32 | 282 |  |
| CCOc1ccccc1-c1nnc([C@@H]2CCCN2C(=O)c2cc(C)ccc2-n2nccn2)[nH]1 [compound 495, {(S)-2-[5-(2-Ethoxy-phenyl)-4H-[1,2,4]triazol-3-yl]-pyrrolidin-1-yl}-(5-methyl-2-[1,2,3]triazol-2-yl-phenyl)-methanone] | 38 | 39 |  |

Further lines, with some results ahead:

| IC50 (human orexin-2 receptor) [nM] | IC50 (orexin-1; [1]) [nM] | SMILES | IC50 (orexin-1) [nM] |
| --- | --- | --- | --- |
| 5 | 47 | COc1cc(C(=O)N2CCC[C@H]2c2nc(-c3ccccc3OC(F)F)no2)c(-n2nccn2)cc1C [compound 189, {(S)-2-[3-(2-Difluoromethoxy-phenyl)-[1,2,4]oxadiazol-5-yl]-pyrrolidin-1-yl}-(5-methoxy-4-methyl-2-[1,2,3]triazol-2-yl-phenyl)-methanone] |  |
| 140 | 126 | COc1cc(C(=O)N2CCC[C@H]2c2nc(-c3ccccc3OC(F)(F)F)no2)c(-n2nccn2)cc1OC [compound 177, (4,5-Dimethoxy-2-[1,2,3]triazol-2-yl-phenyl)-{(S)-2-[3-(2-trifluoromethoxy-phenyl)-[1,2,4]oxadiazol-5-yl]-pyrrolidin-1-yl}-methanone] |  |
| 29 | 276 | COc1cc(C(=O)N2CCC[C@H]2c2nc(-c3ccccc3C(F)(F)F)no2)c(-n2nccn2)cc1C [compound 182, (5-Methoxy-4-methyl-2-[1,2,3]triazol-2-yl-phenyl)-{(S)-2-[3-(2-trifluoromethyl-phenyl)-[1,2,4]oxadiazol-5-yl]-pyrrolidin-1-yl}-methanone] |  |
| 375 | 758 | Cc1ccc(-n2nccn2)c(C(=O)N2CCC[C@H]2c2nc(-c3cc(C)nc(C)c3)no2)c1 [compound 65, {(S)-2-[3-(2,6-Dimethyl-pyridin-4-yl)-[1,2,4]oxadiazol-5-yl]-pyrrolidin-1-yl}-(5-methyl-2-[1,2,3]triazol-2-yl-phenyl)-methanone] |  |
| 6 | 58 | Cc1cc(C)cc(-c2noc([C@@H]3CCCN3C(=O)c3cc(C)ccc3-n3nccn3)n2)c1 [compound 11, {(S)-2-[3-(3,5-Dimethyl-phenyl)-[1,2,4]oxadiazol-5-yl]-pyrrolidin-1-yl}-(5-methyl-2-[1,2,3]triazol-2-yl-phenyl)-methanone] |  |
| 2130 | 1050 | Cc1ccc(-n2nccn2)c(C(=O)N2CCC[C@H]2c2noc(-c3cc(C(F)(F)F)ccn3)n2)c1 [compound 315, (5-Methyl-2-[1,2,3]triazol-2-yl-phenyl)-{(S)-2-[5-(4-trifluoromethyl-pyridin-2-yl)-[1,2,4]oxadiazol-3-yl]-pyrrolidin-1-yl}-methanone] |  |
| 16 | 128 | Cc1ccc(-n2nccn2)c(C(=O)N2CCC[C@H]2c2nc(-c3ccccc3C)no2)c1 [compound 16, (5-Methyl-2-[1,2,3]triazol-2-yl-phenyl)-[(S)-2-(3-o-tolyl-[1,2,4]oxadiazol-5-yl)-pyrrolidin-1-yl]-methanone] |  |
| 30 | 325 | COc1cccc(-c2nc([C@@H]3CCCN3C(=O)c3cc(C)ccc3-n3nccn3)no2)c1C [compound 359, {(S)-2-[5-(3-Methoxy-2-methyl-phenyl)-[1,2,4]oxadiazol-3-yl]-pyrrolidin-1-yl}-(5-methyl-2-[1,2,3]triazol-2-yl-phenyl)-methanone] |  |
| 37 | 44 | CCOc1c(F)cccc1-c1noc([C@@H]2CCCN2C(=O)c2ccc(C)cc2-n2nccn2)n1 [compound 289, {(S)-2-[3-(2-Ethoxy-3-fluoro-phenyl)-[1,2,4]oxadiazol-5-yl]-pyrrolidin-1-yl}-(4-methyl-2-[1,2,3]triazol-2-yl-phenyl)-methanone] |  |
| 124 | 49 | COc1ccccc1-c1nnc([C@@H]2CCCN2C(=O)c2cc(C)ccc2-n2nccn2)[nH]1 [Example 464, {(S)-2-[5-(2-Methoxy-phenyl)-4H-[1,2,4]triazol-3-yl]-pyrrolidin-1-yl}-(5-methyl-2-[1,2,3]triazol-2-yl-phenyl)-methanone] |  |
| 2 | 10 | COc1c(F)cccc1-c1noc([C@@H]2CCCN2C(=O)c2cc(C)c(C)cc2-n2nccn2)n1 [compound 196, (4,5-Dimethyl-2-[1,2,3]triazol-2-yl-phenyl)-{(S)-2-[3-(3-fluoro-2-methoxy-phenyl)-[1,2,4]oxadiazol-5-yl]-pyrrolidin-1-yl}-methanone] |  |
| 2 | 22 | COc1ccc(C)cc1-c1nc([C@@H]2CCCN2C(=O)c2cc(C)c(C)cc2-n2nccn2)no1 [compound 384, (4,5-Dimethyl-2-[1,2,3]triazol-2-yl-phenyl)-{(S)-2-[5-(2-methoxy-5-methyl-phenyl)-[1,2,4]oxadiazol-3-yl]-pyrrolidin-1-yl}-methanone] |  |
